In patent US7364866B2, “Drosophila G protein coupled receptors, nucleic acids, and methods related to the same” (Pharmacia & Upjohn Company, priority 1999, dated 2008):
Non-standard residues stand in square brackets, D forms with d. No end group written: not given here. sY = N[C@@H](Cc1ccc(OS(=O)(=O)O)cc1)C(=O)O

Tests used:
DmGPCR9 [1] = experiment: [35S]GTPγS binding assay, membranes of transfected CHO cells; assay type: biochemical, Drosophila melanogaster; conditions: membranes from CHO cells transfected with DmGPCR9
Description: The transfected cells were washed once with ice-cold Dulbecco's phosphate buffered saline (PBS), 5 ml per 10 cm plate, and scraped into 5 ml of the same buffer. Cell suspensions from multiple plates were combined and centrifuged at 500×g for 10 min at 4° C. The cell pellet was reconstituted in ice-cold TEE (25 mM TRIS, 5 mM EGTA, 5 mM EDTA). Convenient aliquots were snap-frozen in liquid nitrogen and stored at −70° C. After thawing, the cells were homogenized and centrifuged at 4° C., 500×g for 5 minutes to pellet nuclei and unbroken cells. The supernatant was centrifuged at 47,000×g for 30 minutes at 4° C. […] Membrane protein concentration was determined using the BCA Protein Assay Reagent from Pierce (Rockford, Ill.) and BSA as standard. […]
Ligand-induced stimulation of [^35S]GTPγS binding was expressed as fold increase over the basal activity with no ligand added. Each treatment was run either in triplicate, or, on occasion, in duplicate, and the binding (cpm) was calculated as means +/− standard deviations. Dose-response curves for the receptor/ligand systems were analyzed using a non-linear least square SAS model, y=Bmax X/(Kd+X). Other dose-response curves were analyzed using Prism (GraphPad Software, Inc. San Diego, Calif.) and the following equation y=Bottom+(Top−Bottom)/(1+10^LogEC50-X). […]

DmGPCR9 [2] = experiment: calcium mobilization assay (FLIPR); assay type: cell-based, Drosophila melanogaster; conditions: given in words
Description: Changes in intracellular calcium levels are another recognized indicator of G protein-coupled receptor activity, and such assays can be employed to screen for modulators of DmGPCR activity. For example, CHO cells stably transfected with a DmGPCR expression vector are plated at a density of 4×10^4 cells/well in Packard black-walled, 96-well plates specially designed to discriminate fluorescence signals emanating from the various wells on the plate. The cells are incubated for 60 minutes at 37° C. in modified Dulbecco's PBS (D-PBS) containing 36 mg/L pyruvate and 1 g/L glucose and one of four calcium indicator dyes (Fluo-3™ AM, Fluo-4™ AM, Calcium Green™-1 AM, or Oregon Green™ 488 BAPTA-1 AM), each at a concentration of 4 μM. […]
A calcium response is initiated by the addition of one or more candidate receptor agonist compounds, calcium ionophore A23187 (10 μM; positive control), or ATP (4 μM; positive control). Fluorescence is measured by Molecular Device's FLIPR with an argon laser (excitation at 488 nm). […] Basal fluorescence of cells was measured for 20 seconds prior to addition of candidate agonist, ATP, or A23187, and the basal fluorescence level was subtracted from the response signal. The calcium signal is measured for approximately 200 seconds, taking readings every two seconds. […]

Chain of DmGPCR9 (as listed by the source): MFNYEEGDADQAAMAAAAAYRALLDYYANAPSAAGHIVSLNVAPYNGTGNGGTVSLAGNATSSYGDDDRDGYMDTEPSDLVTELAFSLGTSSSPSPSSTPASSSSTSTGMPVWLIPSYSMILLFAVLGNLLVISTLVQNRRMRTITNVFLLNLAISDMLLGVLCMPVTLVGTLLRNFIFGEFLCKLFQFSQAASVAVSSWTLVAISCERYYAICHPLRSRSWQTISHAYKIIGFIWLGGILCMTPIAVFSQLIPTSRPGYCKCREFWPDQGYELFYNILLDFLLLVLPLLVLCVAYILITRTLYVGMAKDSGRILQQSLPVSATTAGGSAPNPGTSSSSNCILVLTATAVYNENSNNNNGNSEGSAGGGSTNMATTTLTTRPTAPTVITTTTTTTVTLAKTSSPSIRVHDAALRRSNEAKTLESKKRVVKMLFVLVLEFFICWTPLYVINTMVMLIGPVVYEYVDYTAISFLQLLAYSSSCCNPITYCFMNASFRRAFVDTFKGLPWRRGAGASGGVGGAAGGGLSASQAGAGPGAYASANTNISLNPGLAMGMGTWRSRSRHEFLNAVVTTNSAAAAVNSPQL

Substance: FDDY(SO3H)GHLRF-NH2 (FDD[sY]GHLRF-NH2; N-terminus assumed; SMILES CC(C)C[C@H](NC(=O)[C@H](Cc1c[nH]cn1)NC(=O)CNC(=O)[C@H](Cc1ccc(OS(=O)(=O)O)cc1)NC(=O)[C@H](CC(=O)O)NC(=O)[C@H](CC(=O)O)NC(=O)[C@@H](N)Cc1ccccc1)C(=O)N[C@@H](CCCNC(=N)N)C(=O)N[C@@H](Cc1ccccc1)C(N)=O)
- GTPγS responses (DmGPCR9 [1]): no GTPγS responses
- EC50, calcium mobilization assay (DmGPCR9 [2]): low nanomolar range
